These results are taken from patent US9051310B2, “Nicotinamide derivative or salt thereof” (FUJIFILM Corporation, priority 2011, dated 2015).

Where a name gives a salt, the structure may show the parent alone. Bounds are passed on as bounds.

For assay [1], the system named is THP-1 cells (TNFα secretion on human IgG-coated plate). In words: TNFα generation assay. It is filed as cell-based. The conditions noted are these: IFN-γ differentiated THP-1 cells, 7 hours, AlphaLISA, read-out: IC50 of TNFα generation inhibitory activity. The procedure, abridged: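 THP-1 cells were differentiated with 10 ng/ml IFN-γ for 2 days, then preincubated with compound for 30 min at room temperature. They were then plated at 5×10^4 cells/well on plates coated with human IgG (10 μg/ml). TNFα secreted over 7 h of culture was quantified by AlphaLISA.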

Assay [2] has as its system mouse thrombocytopenia induced by anti-mouse CD41 antibody. Put plainly: Mouse thrombocytopenia model. The format is in vivo. Particulars: Platelet, female BALB/c mice, 50 mg/kg 1 hour before anti-CD41 antibody, blood sampling 4 hours after antibody, read-out: improvement of platelet count compared with the control group. On the procedure:
Test compounds were tested to examine effects upon mouse thrombocytopenia. Each test compound (50 mg/kg) was administered to 5- to 7-week-old female BALB/c mice (Charles River Laboratories Japan, Inc.). One hour thereafter, an anti-mouse CD41 ([…]) antibody (SCB) (1 μg (200 μl)) was intravenously administered to each mouse so as to induce thrombocytopenia. Four hours after administration of the anti-CD41 antibody, blood sampling from the postcava was performed. The platelet count was determined using an automated hematology analyzer.

For assay [3], the target named is T1, glutathione S-transferase (GST)-linked full-length human Syk protein (Homo sapiens, UniProt P43405).
T1 construct: glutathione S-transferase (GST)-linked full-length human Syk protein; purchased Carna Biosciences; host or cells: Baculovirus expression system
In words: Syk enzyme assay. The format is biochemical. The conditions noted are these: 0.83 nM Syk, time-resolved fluorescence; read-out: IC50 of Syk-inhibitory activity. In outline: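 Phosphotyrosine on a biotin-peptide substrate (0.5 μM) was read by time-resolved fluorescence at 615 and 665 nm with Eu-anti-pTyr antibody and APC-streptavidin after 1 h EDTA stop.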

For assay [4], the system named is THP-1 cells (phagocytosis of opsonized Escherichia coli). Put plainly: Antibody-dependent phagocytosis assay. The conditions noted are these: Homo sapiens; IFNγ differentiated THP-1 cells, opsonized pHrodo Escherichia coli, 3 hours; read-out: IC50 upon phagocytosis inhibition. It is filed as cell-based. In outline:
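THP-1 cells were differentiated to macrophage-like cells with 10 ng/ml IFNγ for 2 days, then treated with test compound for 30 min at room temperature. pHrodo-labeled E. coli opsonized with anti-E. coli antibody were added for 3 h at 37° C. Phagocytosis by viable (Calcein AM-positive) cells was quantified by imaging.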

Assay [5] has as its system rat type II collagen arthritis. In words: Rat type II collagen-induced arthritis. The format is in vivo. Particulars: female Lewis rats, oral administration 10 mg/kg/day, Day 7 to Day 20 once daily, Student's t-test. On the procedure:
The compounds were tested to examine effects upon rat type II collagen arthritis. Equivalent volumes of 0.05 mol/L acetic acid in which a 3 mg/mL bovine type II collagen solution (Collagen Gijutsu Kenshu-Kai) had been dissolved and Freund's incomplete adjuvant (Wako Pure Chemical Industries, Ltd.) were mixed to prepare an emulsion. A portion of the emulsion (0.5 ml) was intradermally injected into the tail bases of 6- to 8-week-old female Lewis rats (Charles River Laboratories Japan, Inc.) (Day 0). Each rat was subjected to the same treatment on Day 7 after the initial inoculation so as to induce arthritis. Each test compound was orally administered from Day 7 to Day 20 once daily. At a given time during the period from Day 7 to Day 21, the rat hindlimb volume was determined using a plethysmometer (UGO BASILE), and the result was designated as an arthritis index.

Assay [6] deals with 191 types of kinases excluding Syk. Put plainly: Selectivity of kinase inhibition (Profiler Pro kits). Particulars: test compound 100 nM; 191 kinases excluding Syk. It is filed as biochemical. On the procedure: The concentrations of test compounds were adjusted to 100 nM. The test compounds were examined using Profiler Pro kits (Caliper) in terms of activity against each of 191 types of kinases excluding Syk.

As to `CN(C)c1nn(C)c2ccc(Nc3nc(N[C@@H]4CCCC[C@@H]4N)c(F)cc3C(N)=O)cc12` [Example 2-1, 6-(((1R,2S)-2-aminocyclohexyl)amino)-2-((3-(dimethylamino)-1-methyl-1H-indazol-5-yl)amino)-5-fluoronicotinamide], the IC50 in assay [1] is 0.065 to 0.13 µM; in assay [3] it was less than 0.01 µM; in assay [4], less than 1 µM. Further, the change in vivo at 50 mg/kg in assay [2] is not below 50%. Further, the “hindlimb swelling on Day 20 compared with the control group” value in assay [5] is “significantly inhibited hindlimb swelling”.

In the case of `CN(C)c1nn(C)c2c(F)cc(Nc3nc(N[C@@H]4CCCC[C@@H]4N)c(F)cc3C(N)=O)cc12` [Example 2-184, 6-(((1R,2S)-2-aminocyclohexyl)amino)-2-((3-(dimethylamino)-7-fluoro-1-methyl-1H-indazole-5-yl)amino)-5-fluoronicotinamide hydrochloride], the results for the IC50 in assay [1], in assay [3] and in assay [4] were 0.065 to 0.13 µM, less than 0.01 µM and less than 1 µM, respectively. For the same compound, the change in vivo at 50 mg/kg in assay [2] was not below 50%. Also, the “hindlimb swelling on Day 20 compared with the control group” value in assay [5] is “significantly inhibited hindlimb swelling”.

For `CC[C@H](N)[C@@H](C)Nc1nc(Nc2cccc3c2cnn3CC)c(C(N)=O)cc1F` [Example 2-100, 6-(((2R,3S)-3-aminopentan-2-yl)amino)-2-((1-ethyl-1H-indazol-4-yl)amino)-5-fluoronicotinamide], the IC50 in assay [1] was 0.13 to 0.2 µM; in assay [3], less than 0.01 µM; in assay [4], 1 to 3 µM. Further, in assay [2], the change in vivo at 50 mg/kg is not below 50%.

As to `CCC[C@@H](Nc1nc(Nc2ccc3c(c2)c(N(C)C)nn3C)c(C(N)=O)cc1F)[C@H](C)N` [Example 2-87, 6-(((2S,3R)-2-aminohexan-3-yl)amino)-2-((3-(dimethylamino)-1-methyl-1H-indazol-5-yl)amino)-5-fluoronicotinamide], the figures for the IC50 in assay [1], in assay [3] and in assay [4] were 0.13 to 0.2 µM, less than 0.01 µM and 1 to 3 µM, respectively. Besides, the change in vivo at 50 mg/kg in assay [2] is not below 50%.

With `CCC[C@@H](Nc1nc(Nc2cnc3c(c2)c(OC)nn3C)c(C(N)=O)cc1F)[C@H](C)N` [Example 2-252, 6-(((2S,3R)-2-aminohexan-3-yl)amino)-5-fluoro-2-((3-methoxy-1-methyl-1H-pyrazolo[3,4-b]pyridin-5-yl)amino)nicotinamide], the results for the IC50 in assay [1], in assay [3] and in assay [4] were 0.13 to 0.2 µM, less than 0.01 µM and less than 1 µM, respectively. In assay [2], the change in vivo at 50 mg/kg is not below 50%.

Regarding `C[C@H](N)[C@H](Nc1nc(Nc2cnc(N3CCOCC3)c(F)c2)c(C(N)=O)cc1F)C1CC1` [Example 2-76, 6-(((1R,2S)-2-amino-1-cyclopropylpropyl)amino)-5-fluoro-2-((5-fluoro-6-morpholinopyridin-3-yl)amino)nicotinamide], the “number of kinases other than Syk with kinase inhibitory rate of 75% or more” value in assay [6] is given as 8 types of kinases. Besides, the IC50 in assay [1] was in the range of 0.13 to 0.2 µM; in assay [3], 0.01 to 0.05 µM; in assay [4] it was 1 to 3 µM. Further, in assay [2], the change in vivo at 50 mg/kg is not below 50%. Moreover, the “hindlimb swelling on Day 20 compared with the control group” value in assay [5] is reported as “significantly inhibited hindlimb swelling”.

`COCCn1ncc2c(Nc3nc(N[C@@H]4CCCC[C@@H]4N)c(F)cc3C(N)=O)cccc21` [Example 2-302, 6-(((1R,2S)-2-aminocyclohexyl)amino)-5-fluoro-2-((1-(2-methoxyethyl)-1H-indazol-4-yl)amino)nicotinamide]: the IC50 was 0.13 to 0.2 µM in assay [1], less than 0.01 µM in assay [3] and 1 to 3 µM in assay [4]. Besides, the change in vivo at 50 mg/kg in assay [2] is not below 50%.
